According to ChEMBL document CHEMBL3872207, “Aromatic heterocyclic esters of podophyllotoxin exert anti-MDR activity in human leukemia K562/ADR cells via ROS/MAPK signaling pathways” (Eur J Med Chem, 2016):

How the values were obtained:
[1] = Potency index, ratio of doxorubicin IC50 to compound IC50 for antiproliferative activity against human K562/ADR cells; assay type: functional
K562/Adr [2] = assay: Induction of apoptosis in human K562/ADR cells assessed as ratio of cleaved PARP to beta-actin level at 0.1 uM pretreated with MAPK inhibitor U0126 for 1 hr followed by compound addition measured after 48 hrs by Western blot analysis (reference value: 0.04); assay type: functional
[3] = biological target: T1, c-Jun N-terminal kinase, JNK (Homo sapiens) (UniProt P45983+P53779+P45984); assay: Induction of JNK phosphorylation in human K562/ADR cells assessed as ratio of phosphorylated JNK to beta-actin level at 0.1 uM pretreated with MAPK inhibitor U0126 for 1 hr followed by compound addition after 48 hrs by Western blotting method (reference value: 0.46); assay type: cell-based
K562/Adr [4] = assay: Induction of apoptosis in human K562/ADR cells assessed as necrotic cells at 0.1 uM pretreated with MAPK inhibitor SB203580 for 1 hr followed by compound addition after 48 hrs by Annexin V-APC/7-AAD staining based flow cytometry (reference value: 0.26%); assay type: functional; set-up: scale not given: the % may be the effect or the level left
K562/Adr [5] = assay: Induction of apoptosis in human K562/ADR cells assessed as viable cells at 0.1 uM pretreated with MAPK inhibitor SP600125 for 1 hr followed by compound addition after 48 hrs by Annexin V-APC/7-AAD staining based flow cytometry (reference value: 95.31%); assay type: functional; details: read-out: Activity
K562/Adr [6] = assay: Induction of apoptosis in human K562/ADR cells assessed as ratio of cleaved caspase-8 to beta-actin level at 0.1 uM measured after 48 hrs by Western blot analysis (reference value: 0.07); assay type: functional
K562/Adr [7] = assay: Induction of ERK1/2 phosphorylation in human K562/ADR cells assessed as ratio of phosphorylated ERK1/2 to beta-actin level at 0.1 uM measured after 48 hrs by Western blotting (reference value: 0.22); assay type: cell-based
[8] = Downregulation of CDK1 expression in human K562/ADR cells assessed as ratio of CDK1 to beta-actin level at 0.1 uM pretreated with MAPK inhibitor U0126 for 1 hr followed by compound addition measured after 48 hrs by Western blot analysis (reference value: 0.53); assay type: functional, cell-based
[9] = Downregulation of CDK1 expression in human K562/ADR cells assessed as ratio of CDK1 to beta-actin level at 0.1 uM measured after 48 hrs by Western blot analysis (reference value: 0.53); assay type: functional, cell-based
K562/Adr [10] = assay: Induction of apoptosis in human K562/ADR cells assessed as ratio of cleaved caspase-8 to beta-actin level at 0.1 uM pretreated with ROS scavenger NAC for 2 hrs followed by compound addition measured after 48 hrs by Western blot analysis (reference value: 0.07); assay type: functional
[11] = biological target: MAP kinase p38 (Homo sapiens) (UniProt O15264+Q15759+Q16539+P53778); assay: Induction of P38 phosphorylation in human K562/ADR cells assessed as ratio of phosphorylated p38 to beta-actin level at 0.1 uM pretreated with ROS scavenger NAC for 2 hrs followed by compound addition after 48 hrs by Western blotting method (reference value: 0.25); assay type: cell-based
K562/Adr [12] = assay: Induction of apoptosis in human K562/ADR cells assessed as late apoptotic cells at 0.1 uM after 48 hrs by Annexin V-APC/7-AAD staining based flow cytometry (reference value: 1.69%); assay type: functional
[13] = biological target: T1, c-Jun N-terminal kinase, JNK (Homo sapiens); assay: Induction of JNK phosphorylation in human K562/ADR cells assessed as ratio of phosphorylated JNK to beta-actin level at 0.1 uM pretreated with MAPK inhibitor SP600125 for 1 hr followed by compound addition after 48 hrs by Western blotting method (reference value: 0.46); assay type: cell-based
K562/Adr [14] = assay: Induction of intracellular ROS accumulation in human K562/ADR cells assessed as fluorescence intensity at 0.1 uM treated 2 hrs post ROS scavenger NAC addition measured after 24 hrs by DCFH-DA probe based flow cytometry relative to vehicle-treated control; assay type: functional
K562/Adr [15] = assay: Induction of apoptosis in human K562/ADR cells assessed as late apoptotic cells at 0.1 uM pretreated with MAPK inhibitor U0126 for 1 hr followed by compound addition after 48 hrs by Annexin V-APC/7-AAD staining based flow cytometry (reference value: 1.69%); assay type: functional; set-up: scale not given: the % may be the effect or the level left
K562 = assay: Resistance index, ratio of IC50 for human K562/ADR cells to IC50 for human K562 cells; assay type: functional
[16] = Downregulation of CDK2 expression in human K562/ADR cells assessed as ratio of CDK2 to beta-actin level at 0.1 uM pretreated with MAPK inhibitor U0126 for 1 hr followed by compound addition measured after 48 hrs by Western blot analysis (reference value: 0.65); assay type: functional, cell-based
[17] = Downregulation of CyclinA expression in human K562/ADR cells assessed as ratio of CyclinA to beta-actin level at 0.1 uM pretreated with MAPK inhibitor SB203580 for 1 hr followed by compound addition measured after 48 hrs by Western blot analysis (reference value: 0.64); assay type: functional, cell-based
[18] = Downregulation of P-gp expression in human K562/ADR cells assessed as ratio of P-gp to beta-actin level at 0.1 uM measured after 48 hrs by Western blot analysis (reference value: 0.63); assay type: functional, cell-based
K562/Adr [19] = assay: Induction of ERK1/2 phosphorylation in human K562/ADR cells assessed as ratio of phosphorylated ERK1/2 to beta-actin level at 0.1 uM pretreated with MAPK inhibitor U0126 for 1 hr followed by compound addition after 48 hrs by Western blotting method (reference value: 0.22); assay type: cell-based
[20] = Downregulation of CyclinB1 expression in human K562/ADR cells assessed as ratio of CyclinB1 to beta-actin level at 0.1 uM pretreated with MAPK inhibitor SB203580 for 1 hr followed by compound addition measured after 48 hrs by Western blot analysis (reference value: 0.77); assay type: functional, cell-based
K562/Adr [21] = assay: Induction of apoptosis in human K562/ADR cells assessed as viable cells at 0.1 uM pretreated with MAPK inhibitor SB203580 for 1 hr followed by compound addition after 48 hrs by Annexin V-APC/7-AAD staining based flow cytometry (reference value: 95.31%); assay type: functional; details: read-out: Activity
K562/Adr [22] = assay: Induction of apoptosis in human K562/ADR cells assessed as early apoptotic cells at 0.1 uM pretreated with MAPK inhibitor SB203580 for 1 hr followed by compound addition after 48 hrs by Annexin V-APC/7-AAD staining based flow cytometry (reference value: 2.74%); assay type: functional; set-up: scale not given: the % may be the effect or the level left
K562/Adr [23] = assay: Induction of apoptosis in human K562/ADR cells assessed as viable cells at 0.1 uM pretreated with MAPK inhibitor U0126 for 1 hr followed by compound addition after 48 hrs by Annexin V-APC/7-AAD staining based flow cytometry (reference value: 95.31%); assay type: functional; details: read-out: Activity
K562/Adr [24] = assay: Induction of apoptosis in human K562/ADR cells assessed as ratio of cleaved caspase-3 to beta-actin level at 0.1 uM pretreated with MAPK inhibitor U0126 for 1 hr followed by compound addition measured after 48 hrs by Western blot analysis (reference value: 0.06); assay type: functional
[25] = biological target: T1, c-Jun N-terminal kinase, JNK (Homo sapiens); assay: Induction of JNK phosphorylation in human K562/ADR cells assessed as ratio of phosphorylated JNK to beta-actin level at 0.1 uM measured after 48 hrs by Western blotting (reference value: 0.46); assay type: cell-based

## COc1cc([C@@H]2c3cc4c(cc3[C@H](OC(=O)c3ccco3)[C@H]3COC(=O)[C@H]23)OCO4)cc(OC)c1OC
[1]
  Ratio IC50: 586.843
K562/Adr [2]
  Ratio: 0.43
[3]
  Ratio: 0.35
K562/Adr [4]
  Activity: 2.86%
K562/Adr [5]
  viability at 0.1 µM: 58.5%
K562/Adr [6]
  Ratio: 0.77
K562/Adr [7]
  Ratio: 0.33
[8]
  Ratio: 0.26
[9]
  Ratio: 0.17
K562/Adr [10]
  Ratio: 0.15
[11]
  Ratio: 0.29
K562/Adr [12]
  Activity: 40.45%
[13]
  Ratio: 0.05
K562/Adr [14]
  fold change (FC): 0.49
K562/Adr [15]
  Activity: 31.44%
K562
  Ratio IC50: 1.28
[16]
  Ratio: 0.26
[17]
  Ratio: 0.34
[18]
  Ratio: 0.07
K562/Adr [19]
  Ratio: 0.01
[20]
  Ratio: 0.26
K562/Adr [21]
  viability at 0.1 µM: 59.4%
K562/Adr [22]
  Activity: 6.84%
K562/Adr [23]
  viability at 0.1 µM: 56.5%
K562/Adr [24]
  Ratio: 0.49
[25]
  Ratio: 0.83
